Literature values, collected in paper PMC8287861 (Frontiers in Microbiology, 2021).
In brackets after ≈: the same amount, converted by molar mass. Read-outs that look alike come from different tables or passages of the source.

Columns and labels:
IMP-26 = test system: IMP-26; set-up: method as in Tsivkovski et al. (2020); details: class B, ref Tsivkovski et al. (2020)
VIM-1 [1] = test system: VIM-1; set-up: method as in Tsivkovski et al. (2020); details: VIM-1, class B; ref Tsivkovski et al. (2020)
CTX-M-14 = test system: CTX-M-14; set-up: method as in Tsivkovski et al. (2020); details: CTX-M-14, class A; ref Tsivkovski et al. (2020)
SHV-12 [2] = details: SHV-12, class A; ref Tsivkovski et al. (2020)
NDM-1 = test system: NDM-1; set-up: method as in Tsivkovski et al. (2020); details: class B, ref Tsivkovski et al. (2020)
CTX-M-15 [3] = test system: CTX-M-15; set-up: method as in Tsivkovski et al. (2020); details: CTX-M-15, class A; ref Tsivkovski et al. (2020)
IMP-1 [4] = test system: IMP-1; set-up: method as in Tsivkovski et al. (2020); details: class B, ref Tsivkovski et al. (2020)
OXA-48 [5] = test system: OXA-48; set-up: method as in Tsivkovski et al. (2020); details: OXA-48, class D; ref Tsivkovski et al. (2020)
KPC-2 [6] = test system: KPC-2; set-up: method as in Tsivkovski et al. (2020); details: KPC-2, class A; ref Tsivkovski et al. (2020)
P99 [7] = test system: P99; set-up: method as in Tsivkovski et al. (2020); details: P99, class C; ref Tsivkovski et al. (2020)
KPC-2 [8] = test system: KPC-2
KPC-3 = biological target: KPC-3; set-up: method as in Tsivkovski et al. (2020); details: ref Tsivkovski et al. (2020)
OXA-23 [9] = biological target: OXA-23; set-up: method as in Tsivkovski et al. (2020); details: ref Tsivkovski et al. (2020)
[10] = set-up: method as in Sabet et al., 2020; details: plasma QPX7728 exposure associated with 8 μg/ml; ref Sabet et al., 2020
CTX-M-15 [11] = biological target: CTX-M-15; set-up: method as in Tsivkovski et al. (2020); details: ref Tsivkovski et al. (2020)
BKC-1 = biological target: BKC-1; set-up: method as in Tsivkovski et al. (2020); details: ref Tsivkovski et al. (2020)
[12] = test system: KPC-producing porin/efflux mutants of K. pneumoniae; details: ref Lomovskaya et al.
[13] = set-up: method as in Hecker et al., 2020; details: rats, doses of 30–100 mg/kg; ref Hecker et al., 2020
OXA-58 = biological target: OXA-58; set-up: method as in Tsivkovski et al. (2020); details: ref Tsivkovski et al. (2020)
[14] = test system: ESBL and CRE producing strains of Enterobacterales; set-up: method as in Nelson et al. (2020a; 2020b); details: ref Nelson et al. (2020a; 2020b)
SME-2 = biological target: SME-2; set-up: method as in Tsivkovski et al. (2020); details: ref Tsivkovski et al. (2020)
OXA-24 = biological target: OXA-24; set-up: method as in Tsivkovski et al. (2020); details: ref Tsivkovski et al. (2020)
FRI-1 = biological target: FRI-1; set-up: method as in Tsivkovski et al. (2020); details: ref Tsivkovski et al. (2020)
OXA-48 [15] = biological target: OXA-48; set-up: method as in Tsivkovski et al. (2020); details: ref Tsivkovski et al. (2020)
[16] = test system: isogenic strains of P. aeruginosa that produced KPC; set-up: method as in Lomovskaya et al., 2020a; details: ref Lomovskaya et al., 2020a; for PV50: potency to enhance biapenem activity;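 for PV50: read from a curve of biapenem MIC plotted against inhibitor concentration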
SHV-12 [17] = biological target: SHV-12; set-up: method as in Tsivkovski et al. (2020); details: ref Tsivkovski et al. (2020)
IMP-1 [18] = biological target: IMP-1; set-up: method as in Tsivkovski et al. (2020); details: ref Tsivkovski et al. (2020)
[19] = test system: carbapenem resistant Acinetobacter baumannii; details: in combination with meropenem; majority of the subsets of strains; ref Nelson et al., 2020b
P99 [20] = biological target: P99; set-up: method as in Tsivkovski et al. (2020); details: ref Tsivkovski et al. (2020)
TEM-43 = biological target: TEM-43; set-up: method as in Tsivkovski et al. (2020); details: ref Tsivkovski et al. (2020)
VIM-1 [21] = biological target: VIM-1; set-up: method as in Tsivkovski et al. (2020); details: ref Tsivkovski et al. (2020)
[22] = test system: Acinetobacter baumannii mutants producing OXA-23; set-up: method as in Lomovskaya et al., 2020a; details: overexpression of efflux pumps; ref Lomovskaya et al., 2020a
[23] = test system: carbapenem-resistant strains of Enterobacterales (CRE); set-up: method as in Nelson et al. (2020a); details: with meropenem, ref Nelson et al. (2020a)
OXA-23 [24] = test system: OXA-23; set-up: method as in Tsivkovski et al. (2020); details: OXA-23, class D; ref Tsivkovski et al. (2020)
[25] = set-up: method as in Hecker et al., 2020; details: ref Hecker et al. (2020)
[26] = inactivation of OmpK35 and OmpK36 and increased efflux, 2020a
[27] = same mutations (OmpK35, OmpK36, increased efflux), 2017

SMILES: NC(=O)[C@@H]1CC[C@@H]2CN1C(=O)N2OS(=O)(=O)O [Avibactam, avibactam]
- IC50 (IMP-26): > 160 µM
- IC50 (VIM-1 [1]): > 160 µM
- IC50 (CTX-M-14): 1.4 ± 0.4 nM
- IC50 (SHV-12 [2]): 0.61 ± 0.19 nM
- IC50 (NDM-1): > 160 µM
- IC50 (CTX-M-15 [3]): 0.56 ± 0.25 nM
- IC50 (IMP-1 [4]): > 160 µM
- IC50 (P99 [7]): 26 ± 7 nM
- residence time (KPC-2 [8]; ref Ehmann et al., 2013): ~2 h

SMILES: O=C(O)c1c(F)ccc2c1OB(O)[C@@H]1C[C@H]21 [QPX7728]
- Kd (KPC-3): 0.31 ± 0.06 nM
- IC50 (VIM-1 [1]): 0.014 ± 0.004 µM
- Kd (OXA-23 [9]): 1.6 ± 0.2 nM
- IC50 (CTX-M-14): 0.94 ± 0.2 nM
- efficacy of plasma exposure [10]: efficacious in animal models of infection
- Kd (CTX-M-15 [11]): 0.11 ± 0.02 nM
- Kd (BKC-1): 0.06 ± 0.005 nM
- IC50 (SHV-12 [2]): 1.9 ± 0.6 nM
- potency to completely inhibit KPC ([12]; before porin/efflux mutations, 2020a): 0.125 µg/mL (≈ 0.563 µM)
- potency to completely inhibit KPC [12, 26]: 4 µg/mL (≈ 18 µM)
- reduction of the potency to completely inhibit KPC [12, 26]: ca. 32 fold
- IC50 (CTX-M-15 [3]): 1.2 ± 0.1 nM
- IC50 (IMP-1 [4]): 0.61 ± 0.07 µM
- IC50 (OXA-48 [5]): 1.1 ± 0.4 nM
- oral bioavailability [13]: 43–53%
- Kd (OXA-58): 3.2 ± 0.3 nM
- IC50 (KPC-2 [6]): 2.9 ± 0.4 nM
- TPC90 ([14]; in combination with aztreonam at 8 μg/ml (FDA susceptible breakpoint)): 4 µg/mL
- TPC90 ([14]; in combination with cefepime at 8 μg/ml (FDA susceptible breakpoint)): 4 µg/mL
- Kd (SME-2): 0.15 ± 0.02 nM
- Kd (OXA-24): 0.58 ± 0.1 nM
- Kd (FRI-1): 0.11 ± 0.01 nM
- Kd (OXA-48 [15]): 0.13 ± 0.01 nM
- IC50 (P99 [7]): 22 ± 6 nM
- PV50 ([16]; PAM4126, mexR (MexAB-OprM)): 2 µg/mL
- PV50 ([16]; PAM4129, nfxB (MexCD-OprJ)): 0.5 µg/mL
- PV50 ([16]; PAM4132, mexT (MexEF-OprM)): 1 µg/mL
- PV50 ([16]; PAM4150, mexZ (MexXY-OprM)): 1 µg/mL
- PV50 ([16]; PAM4224, Wild-type): 1 µg/mL
- PV50 ([16]; PAM4365, MexA::Tet): 1 µg/mL
- reduction in potency ([16]; mexAB-oprM efflux operon overexpressed): No more than two-fold reduction in potency
- effect of inactivation of the carbapenem porin OprD on potency [16]: did not have any effect
- Kd (SHV-12 [17]): 28 ± 4 nM
- Kd (IMP-1 [18]; IMP-1 (text b23 calls it Ki)): 240 ± 30 nM
- Ki (IMP-1 [18]; IMP-1, competitive inhibitor): ~240 nM
- TPC90 [19]: less than or equal to 8 μg/ml
- Kd (P99 [20]): 0.53 ± 0.06 nM
- Kd (KPC-2 [8]; ref Tsivkovski et al. (2020)): 0.25 ± 0.03 nM
- Kd (TEM-43): 0.17 ± 0.02 nM
- Kd (VIM-1 [21]; VIM-1 (text b23 calls it Ki)): 7.5 ± 2.1 nM
- Ki (VIM-1 [21]; VIM-1, competitive inhibitor): ~7 nM
- effect of efflux on potency to inhibit β-lactamase [22]: no effect of efflux on the potency
- TPC90 ([23]; 598 CRE, breakpoint of 8 μg/ml): 4 µg/mL
- TPC90 ([23]; subsets with carbapenemase production and non-β-lactamase-mediated resistance mechanisms): 4 to 8 µg/mL
- IC50 (OXA-23 [24]): 1.2 ± 0.4 nM

SMILES: COc1ccc2c(c1C(=O)O)OB(O)CC2 [RPX7610]
- metabolic stability (in words) [25]: metabolic liability
- effect of efflux and porin mutations (β-lactamases; ref Hecker et al. (2020)): minimally affected by efflux and porin mutations
- β-lactamase inhibition (in words) (β-lactamases; ref Hecker et al. (2020)): potent inhibition of all target β-lactamases

SMILES: O=C(NC1CCNCC1)[C@@H]1CC[C@@H]2CN1C(=O)N2OS(=O)(=O)O [Relebactam, relebactam]
- IC50 (IMP-26): > 160 µM
- IC50 (VIM-1 [1]): > 160 µM
- IC50 (CTX-M-14): 34 ± 10 nM
- IC50 (SHV-12 [2]): 330 ± 50 nM
- IC50 (NDM-1): > 160 µM
- IC50 (CTX-M-15 [3]): 76 ± 3 nM
- IC50 (IMP-1 [4]): > 160 µM
- IC50 (P99 [7]): 36 ± 4 nM
- residence time (KPC-2 [8]; ref Papp-Wallace et al., 2018): 1.5 h

SMILES: O=C(O)C[C@@H]1CC[C@H](NC(=O)Cc2cccs2)B(O)O1 [Vaborbactam, vaborbactam]
- IC50 (IMP-26): > 160 µM
- IC50 (VIM-1 [1]): > 160 µM
- IC50 (CTX-M-14): 110 ± 40 nM
- IC50 (SHV-12 [2]): 56 ± 11 nM
- potency to completely inhibit KPC ([12]; before porin/efflux mutations, 2017): 0.25 µg/mL (≈ 0.841 µM)
- potency to completely inhibit KPC [12, 27]: 64 µg/mL (≈ 215 µM)
- reduction of the potency [12, 27]: 256 fold
- IC50 (NDM-1): > 160 µM
- IC50 (CTX-M-15 [3]): 92 ± 13 nM
- IC50 (IMP-1 [4]): > 160 µM
- IC50 (KPC-2 [6]): 110 ± 30 nM
- IC50 (P99 [7]): 88 ± 38 nM
- PV50 ([16]; PAM4126, mexR (MexAB-OprM)): 64 µg/mL
- PV50 ([16]; PAM4129, nfxB (MexCD-OprJ)): 4 µg/mL
- PV50 ([16]; PAM4132, mexT (MexEF-OprM)): >64 µg/mL
- PV50 ([16]; PAM4150, mexZ (MexXY-OprM)): 8 µg/mL
- PV50 ([16]; PAM4224, Wild-type): 8 µg/mL
- PV50 ([16]; PAM4365, MexA::Tet): 0.5 µg/mL
- reduction in potency ([16]; overproduction of the MexAB-OprM or the MexEF-OprN efflux pumps): ≥ 8 fold
- potency against other class A or class C beta lactamases compared to KPC enzymes (β-lactamases; fold less potent, ref Tsivkovski and Lomovskaya, 2019): 10–50 fold
- residence time (KPC-2 [8]; ref Tsivkovski and Lomovskaya, 2019): ~6 h
